According to US7718635B2, “Triterpenic acid derivative and preparation for external application for skin comprising the same” (Pola Chemical Industries Inc., priority 2005, dated 2010):
Like-named read-outs stand apart in the source and are kept apart here.

Tests used:
[1] = Comparison of solubilities (saturated concentration by HPLC); assay type: physicochemical; settings: for solubility thermodynamic at 16 h: thermodynamic from solid
Method: The thus-obtained ursolic acid phosphate was compared to ursolic acid (control) on their solubilities. The mixture was stirred for 16 hours and was passed through a 0.45-μm filter. After that, concentration measurement was performed by HPLC.

[2] = test system: Hartley white guinea pigs; experiment: Guinea pig maximization test (skin sensitivity); assay type: in vivo; settings: challenge 5%, 0.5%, Draize criteria
Method: A guinea pig maximization test was performed using ten Hartley white guinea pigs to examine the presence or absence of the skin sensitivity of ursolic acid phosphate to the guinea pigs. An emulsified product containing distilled water and Freund's complete adjuvant (FCA) in equal volumes, a test substance (dissolved in olive oil, 5%), and a mixture including a test substance and FCA in equal volumes were separately injected intracutaneously to five guinea pigs in two sites with 0.1 mL, respectively. The next day, the hair of the intracutaneous injection sites was shaved, and a mixture of 10% sodium lauryl sulfate/petrolatum was applied thereto. The day after that, 0.1 ml of 5% ursolic acid phosphate (dissolved in olive oil) was applied with a patch for 48 hours to the shaved sites to complete induction of sensitization. After completion of induction of sensitization, a 10-day rest period was provided. After completion of the period, the hair in back untreated sites was shaved. Then, each of 0.1 ml of 5%, 0.5%, and 0% ursolic acid phosphate (dissolved in olive oil) was applied with a patch for 24 hours to respective three sites to […]. Thirty minutes and 24 hours after patch removal, skin reactions were observed. […]

Row | Structure (SMILES) | solubility compared to that of ursolic acid [1] | Saturated concentration ([1]; 16 h, pH 7) [µg/mL] | Saturated concentration ([1]; 16 h, pH 9) [µg/mL] | solubility thermodynamic at 16 h ([1]; pH 9, aqueous buffer) [µg/mL] | solubility thermodynamic at 16 h ([1]; water) [µg/mL] | skin reactions, sample-administered group versus control group ([2]; 0% in olive oil, patch 24 hours) | sensitization to skin ([2]; induction with 5% in olive oil, 0% patch 24 hours, observed 30 minutes and 24 hours after patch removal) | Saturated concentration ([1]; Solvent 8% EtOH/0.1 M phosphate Buffer (pH7.0), stirred 16 hours, 0.45-μm filter, HPLC) [µg/mL] | Saturated concentration ([1]; Solvent 8% EtOH/0.1 M phosphate Buffer (pH9), stirred 16 hours, 0.45-μm filter, HPLC) [µg/mL] | Saturated concentration ([1]; Solvent 8% EtOH/DW, stirred 16 hours, 0.45-μm filter, HPLC) [µg/mL] | Saturated concentration ([1]; Solvent EtOH, stirred 16 hours, 0.45-μm filter, HPLC) [µg/mL] | solubility thermodynamic at 16 h ([1]; pH 9, aqueous buffer, Solvent 0.1 M phosphate Buffer (pH9), stirred 16 hours, 0.45-μm filter, HPLC, read-out: Saturated concentration) [µg/mL] | solubility thermodynamic at 16 h ([1]; water, Solvent DW, stirred 16 hours, 0.45-μm filter, HPLC, read-out: Saturated concentration) [µg/mL]
1 | C[C@H]1[C@H](C)CC[C@]2(C(=O)O)CC[C@]3(C)C(=CC[C@@H]4[C@@]5(C)CCC(OP(=O)(O)O)C(C)(C)[C@@H]5CC[C@]43C)[C@H]12 (stereo partly shown) [ursolic acid phosphate, Ursolic acid phosphate] | improved | 31.1 | 7.5 | 120 | 20.1 | no differences | not observed | – | – | – | – | – | –
2 | C[C@H]1[C@H](C)CC[C@]2(C(=O)O)CC[C@]3(C)C(=CC[C@@H]4[C@@]5(C)CC[C@H](O)C(C)(C)[C@@H]5CC[C@]43C)[C@H]12 [ursolic acid, reference compound] | – | – | – | – | – | – | – | <1 | <1 | <1 | <1 | < 1 | < 1
